Data taken from patent EP1158000A1, “Crystal structure data of cystalysin and use thereof for the design and preparation of inhibitor molecules” (priority 2000, dated 2001).
Read-outs that look alike come from different tables or passages of the source.

Key:
cystalysin [1] = assay: Spectral measurement of cystalysin after treatment with AVG; type: biochemical, Treponema denticola; conditions: chromophore at 336 nm formed simultaneously, spectra at 20°C in 100 mM phosphate buffer
Description: PLP-dependent enzymes catalyzing β-elimination reactions are known to be inhibited by a number of β,γ-unsaturated amino acids like the natural toxins rhizobitoxin (Owens et al., 1968) and L-aminoethoxyvinylglycine (AVG) (Pruess et al., 1974), that act as so-called slow-binding inhibitors (Morrison and Walsh, 1988). […] Spectral and fluorescence measurements lead to similar observations for cystalysin after incubation with AVG (Figure 4A). […] The inhibitor is mainly bound by hydrogen bonds to its carboxylate oxygens which originate from Ala39, Asn 175 and Arg369 (Figure 4C). […] Hydrophobic interactions are with Tyr64* and Phe273* which are in van-der-Waals contact to the carbon atoms CFI, CEI and CGI. Contrary for CBL, the amino-tail of the inhibitor is not bound to Tyr123, but stretched out in opposite direction towards a large hydrophobic cavity formed by the residues Leu17, Val38, Typ64* and Phe273* that is absent in CBL. […]
(A) The spectra of uncomplexed cystalysin and cystalysin after treatment with AVG, recorded at 20°C in 100 mM phosphate buffer. (B) Final 2Fo-Fc electron density of the PLP-AVG complex (yellow) and the intermediate protein vicinity (color-coding by atom type), contoured at 1.2 σ and calculated at 2.5 Å resolution. […]

cystalysin [2] = assay: Loss of cystalysin enzyme activity through AVG; type: biochemical, Treponema denticola; conditions: dead end ketimine PLP derivative formed with AVG
Description: Overall, the PLP cofactor remains fixed in position with only the pyridine ring rotated slightly (≤ 10°), while no major structural changes regarding domain movement have been observed. These findings are contradicting an open/closed mechanism upon substrate binding, since the cystalysin-AVG structure should resemble the physiological enzyme-substrate complex. Due to the similarities in inhibition pattern and spectral changes, AVG should act on cystalysin in a similar manner as reported for CBL (Clausen et al., 1997). After transaldimination, a proton transfer from C^α to C4' is mediated by the deprotonated ε-amino group of the released Lys238, instead of protonating the leaving group. The resulting "dead end" ketimine PLP derivative is responsible for the observed 336 nm-chromophore and the total loss of enzyme activity. The inability of cystalysin to catalyze a transamination of this ketimine also accounts for the high stability of the final intermediate.

[3] = target: cystathionine β-lyase (CBL) (Escherichia coli, UniProt P06721); conditions: upon treatment with AVG; cited from earlier work
cystalysin [4] = conditions: substrate cleavage by cystalysin; cited from earlier work
[5] = target: T1, PLP-dependent β-cystathionase (osteotoxin) (Bordetella avium, UniProt Q07703); conditions: cited from earlier work
T1 sequence (Q07703 2-396 limits assumed): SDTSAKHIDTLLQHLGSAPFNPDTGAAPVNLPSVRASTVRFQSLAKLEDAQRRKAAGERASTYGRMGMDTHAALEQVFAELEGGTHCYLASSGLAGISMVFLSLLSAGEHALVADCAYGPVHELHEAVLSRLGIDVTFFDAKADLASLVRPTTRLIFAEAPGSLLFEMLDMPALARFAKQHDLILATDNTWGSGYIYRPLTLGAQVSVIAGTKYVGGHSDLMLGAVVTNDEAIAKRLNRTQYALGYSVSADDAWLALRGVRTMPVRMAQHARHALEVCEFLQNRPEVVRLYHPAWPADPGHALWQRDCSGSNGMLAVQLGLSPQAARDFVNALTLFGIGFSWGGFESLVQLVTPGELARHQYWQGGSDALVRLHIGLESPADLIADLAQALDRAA

Sequence of cystathionine β-lyase (CBL) (P06721 2-395): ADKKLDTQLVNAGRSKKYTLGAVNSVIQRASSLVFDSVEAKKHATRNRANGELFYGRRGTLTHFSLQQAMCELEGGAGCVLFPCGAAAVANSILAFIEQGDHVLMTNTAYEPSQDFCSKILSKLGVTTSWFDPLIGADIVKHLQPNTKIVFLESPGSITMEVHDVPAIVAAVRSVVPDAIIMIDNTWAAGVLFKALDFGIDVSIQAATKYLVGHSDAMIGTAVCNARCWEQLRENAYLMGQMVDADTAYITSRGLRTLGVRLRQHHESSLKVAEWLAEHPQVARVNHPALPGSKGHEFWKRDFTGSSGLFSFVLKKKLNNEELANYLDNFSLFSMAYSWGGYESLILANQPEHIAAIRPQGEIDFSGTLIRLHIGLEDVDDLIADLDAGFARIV

Row | Structure (SMILES) | pyridoxaldimine absorbance of the active enzyme at 419 nm (cystalysin [1]) | enzyme activity (cystalysin [2]) | interaction with CBL [3] | Kcat (cystalysin [4]) [s⁻¹] | Km (cystalysin [4]) [mM] | Km ([5]; highest affinity substrate) [mM] | Km ([5]; weak affinity substrate) [mM]
1 | NCCO/C=C/[C@H](N)C(=O)O [AVG, L-aminoethoxyvinylglycine] | rapid and complete loss | total loss | time-dependent formation of a long-lived, slowly dissociating enzyme-inhibitor compolex |  |  |  | 
2 | N[C@@H](CS)C(=O)O [cysteine] |  |  |  | 12 | 3.6 | 0.077 | 5
